Laboratory results taken from PubChem BioAssay AID248 (DTP/NCI, 2004).
Several values for one entry are separate records, joined by “and”; a condition that tells them apart may be missing. Identical values can stand only once. Inconclusive results and toxic doses are left out.

Test system: L1210 leukemia ip in BDF1 mice, survival T/C
Test: NCI In Vivo Anticancer Drug Screen. Data for tumor model L1210 Leukemia (intraperitoneal) in B6D2F1 (BDF1) mice
Settings: endpoint: mean survival time, higher = longer survival
In short: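 Each compound was tested against a transplantable tumor grown in mice. The endpoint was survival, with treated animals benchmarked against vehicle controls as a simple ratio.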

[1] = dose: 100.0 mg/kg/injection, schedule: Q01DX009 (ip), vehicle: saline
[2] = dose: 100.0 mg/kg/injection, schedule: Q04DX003 (ip), vehicle: saline
[3] = dose: 200.0 mg/kg/injection, schedule: Q01DX009 (ip), vehicle: saline
[4] = dose: 200.0 mg/kg/injection, schedule: Q04DX003 (ip), vehicle: saline
[5] = dose: 400.0 mg/kg/injection, schedule: Q04DX003 (ip), vehicle: saline
[6] = dose: 50.0 mg/kg/injection, schedule: Q01DX009 (ip), vehicle: Klucel (hydroxypropylcellulose) (HPC)
[7] = dose: 100.0 mg/kg/injection, schedule: Q01DX009 (ip), vehicle: Klucel (hydroxypropylcellulose) (HPC)
[8] = dose: 200.0 mg/kg/injection, schedule: Q01DX009 (ip), vehicle: Klucel (hydroxypropylcellulose) (HPC)
[9] = dose: 100.0 mg/kg/injection, schedule: Q04DX002 (ip), vehicle: Klucel (hydroxypropylcellulose) (HPC)
[10] = dose: 200.0 mg/kg/injection, schedule: Q04DX002 (ip), vehicle: Klucel (hydroxypropylcellulose) (HPC)
[11] = dose: 400.0 mg/kg/injection, schedule: Q04DX002 (ip), vehicle: Klucel (hydroxypropylcellulose) (HPC)
[12] = dose: 100.0 mg/kg/injection, schedule: Q01DX009 (ip), vehicle: saline with Tween-80
[13] = dose: 100.0 mg/kg/injection, schedule: Q04DX003 (ip), vehicle: Klucel (hydroxypropylcellulose) (HPC)
[14] = dose: 200.0 mg/kg/injection, schedule: Q01DX009 (ip), vehicle: saline with Tween-80
[15] = dose: 200.0 mg/kg/injection, schedule: Q04DX003 (ip), vehicle: Klucel (hydroxypropylcellulose) (HPC)
[16] = dose: 400.0 mg/kg/injection, schedule: Q04DX003 (ip), vehicle: Klucel (hydroxypropylcellulose) (HPC)
[17] = dose: 100.0 mg/kg/injection, schedule: Q04DX003 (ip), vehicle: saline with Tween-80
[18] = dose: 200.0 mg/kg/injection, schedule: Q04DX003 (ip), vehicle: saline with Tween-80
[19] = dose: 400.0 mg/kg/injection, schedule: Q04DX003 (ip), vehicle: saline with Tween-80
[20] = dose: 25.0 mg/kg/injection, schedule: Q01DX009 (ip), vehicle: saline with Tween-80
[21] = dose: 50.0 mg/kg/injection, schedule: Q01DX009 (ip), vehicle: saline
[22] = dose: 400.0 mg/kg/injection, schedule: Q01DX009 (ip), vehicle: Klucel (hydroxypropylcellulose) (HPC)

SMILES: CCOC(=O)OC1C(OC)OC2COC(c3ccccc3)OC2C1OC(=O)OCC (stereo not drawn)
- T/C (dose: 100.0 mg/kg/injection, schedule: Q04DX002 (ip), vehicle: other): 103 % of control
- T/C (dose: 200.0 mg/kg/injection, schedule: Q04DX002 (ip), vehicle: other): 97 % of control
- T/C (dose: 400.0 mg/kg/injection, schedule: Q04DX002 (ip), vehicle: other): 100 % of control

SMILES: NCCSS(=O)(=O)CCN
- T/C [1]: 105 % of control
- T/C [2]: 106 % of control
- T/C [3]: 107 % of control
- T/C [4]: 107 % of control
- T/C (dose: 400.0 mg/kg/injection, schedule: Q01DX009 (ip), vehicle: saline): 100 % of control
- T/C [5]: 100 % of control

SMILES: Clc1nc(Nc2ccccc2)c2ccccc2n1
- T/C [6]: 111 % of control
- T/C [7]: 95 % of control
- T/C [8]: 107 % of control

SMILES: COc1cc(/C=N/N=C/c2cc(OC)cc(OC)c2)cc(OC)c1
- T/C [9]: 98 % of control
- T/C [10]: 100 % of control
- T/C [11]: 107 % of control

SMILES: Cc1[nH]c(=S)[nH]c(=O)c1CCC(=O)O
- T/C [12]: 96 % of control
- T/C [13]: 94 % of control
- T/C [14]: 98 % of control
- T/C [15]: 102 % of control
- T/C (dose: 400.0 mg/kg/injection, schedule: Q01DX009 (ip), vehicle: saline with Tween-80): 98 % of control
- T/C [16]: 102 % of control

SMILES: O=P(CCl)(CCCl)CCCl
- T/C (dose: 50.0 mg/kg/injection, schedule: Q04DX003 (ip), vehicle: saline): 101 % of control
- T/C [2]: 103 % of control
- T/C [4]: 103 % of control
- T/C [5]: 89 % of control

SMILES: CCOP(=S)(OCC)SCc1ccc(C)cc1
- T/C [17]: 98 % of control
- T/C [18]: 103 % of control
- T/C [19]: 110 % of control

SMILES: O=[N+]([O-])c1cc[n+]([O-])cc1
- T/C (dose: 6.25 mg/kg/injection, schedule: Q01DX009 (ip), vehicle: saline with Tween-80): 98 % of control
- T/C (dose: 6.25 mg/kg/injection, schedule: Q04DX003 (ip), vehicle: saline with Tween-80): 96 % of control
- T/C (dose: 12.5 mg/kg/injection, schedule: Q01DX009 (ip), vehicle: saline with Tween-80): 96 % of control
- T/C (dose: 12.5 mg/kg/injection, schedule: Q04DX003 (ip), vehicle: saline with Tween-80): 96 % of control
- T/C [20]: 91 % of control
- T/C (dose: 25.0 mg/kg/injection, schedule: Q04DX003 (ip), vehicle: saline with Tween-80): 95 % of control

SMILES: CCCCCCCCCCCCN(CCCCCCCCCCCC)S(=O)(=O)c1ccc(Cl)c([N+](=O)[O-])c1
- T/C [13]: 94 % of control
- T/C [15]: 94 % of control
- T/C [16]: 104 % of control

SMILES: O=C(O)c1ccc(CCl)cc1
- T/C (dose: 100.0 mg/kg/injection, schedule: Q04DX002 (ip), vehicle: saline with Tween-80): 108 % of control
- T/C (dose: 200.0 mg/kg/injection, schedule: Q04DX002 (ip), vehicle: saline with Tween-80): 105 % of control

SMILES: CN(C)CCCNC(CC#N)CCC#N (stereo not drawn)
- T/C [21]: 91 % of control
- T/C [1]: 92 % of control
- T/C [3]: 92 % of control

SMILES: Cc1ccc(NC(=O)Oc2cccc(C(F)(F)F)c2)cc1
- T/C [7]: 100 % of control
- T/C [8]: 98 % of control
- T/C [22]: 100 % of control

SMILES: CCCCCCCCCCCCCCCCSCCOC(=O)C1C2CCC(O2)C1C(=O)O (stereo not drawn)
- T/C (dose: 12.5 mg/kg/injection, schedule: Q01DX001 (ip), vehicle: Klucel (hydroxypropylcellulose) (HPC)): 107 % of control
- T/C (dose: 25.0 mg/kg/injection, schedule: Q01DX001 (ip), vehicle: Klucel (hydroxypropylcellulose) (HPC)): 101 % of control
- T/C (dose: 50.0 mg/kg/injection, schedule: Q01DX001 (ip), vehicle: Klucel (hydroxypropylcellulose) (HPC)): 98 % of control

SMILES: C=CC(=O)Oc1ccc([N+](=O)[O-])cc1
- T/C (dose: 12.0 mg/kg/injection, schedule: Q01DX009 (ip), vehicle: saline): 100 % of control
- T/C (dose: 25.0 mg/kg/injection, schedule: Q01DX009 (ip), vehicle: saline): 117 % of control
- T/C [21]: 114 % of control
- T/C [4]: 100 % of control
- T/C [5]: 108 % of control

SMILES: CC1(C)N=C(N)N=C(N)N1c1cccc(CC(=O)Nc2ccc(S(=O)(=O)F)cc2)c1
- T/C (dose: 0.8 mg/kg/injection, schedule: Q01DX009 (ip), vehicle: saline): 101 % of control
- T/C (dose: 4.0 mg/kg/injection, schedule: Q01DX009 (ip), vehicle: saline): 100 % of control
- T/C (dose: 20.0 mg/kg/injection, schedule: Q01DX009 (ip), vehicle: saline): 110 % of control
- T/C (dose: 25.0 mg/kg/injection, schedule: Q01DX009 (ip), vehicle: Klucel (hydroxypropylcellulose) (HPC)): 108 % of control
- T/C [20]: 103 % of control
- T/C [6]: 113 % of control
- T/C (dose: 50.0 mg/kg/injection, schedule: Q01DX009 (ip), vehicle: saline with Tween-80): 100 % of control
- T/C (dose: 88.0 mg/kg/injection, schedule: Q01DX009 (ip), vehicle: saline with Tween-80): 102 % of control
- T/C [7]: 109 % of control
- T/C [1]: 117 % of control
- T/C (dose: 132.0 mg/kg/injection, schedule: Q01DX009 (ip), vehicle: saline with Tween-80): 121 % of control
- T/C (dose: 150.0 mg/kg/injection, schedule: Q01DX009 (ip), vehicle: Klucel (hydroxypropylcellulose) (HPC)): 105 % of control
- T/C (dose: 300.0 mg/kg/injection, schedule: Q01DX009 (ip), vehicle: saline with Tween-80): 89 % of control

SMILES: COC(=O)c1[nH]nc(-c2ccccc2-c2ccccc2C(=O)O)c1C(=O)OC
- T/C [9]: 97 % of control
- T/C [10]: 108 % of control
- T/C [11]: 105 % of control

SMILES: CN1C(=O)C(Br)=C(Br)C1(O)c1cccnc1 (stereo not drawn)
- T/C (dose: 50.0 mg/kg/injection, schedule: Q01DX001 (ip), vehicle: saline): 104 % of control
- T/C (dose: 100.0 mg/kg/injection, schedule: Q01DX001 (ip), vehicle: saline): 104 % of control
- T/C (dose: 200.0 mg/kg/injection, schedule: Q01DX001 (ip), vehicle: saline): 95 % of control
- T/C (dose: 400.0 mg/kg/injection, schedule: Q01DX001 (ip), vehicle: saline): 98 % of control

SMILES: O=C(O)c1ccc(-c2ccc(C(=O)O)cc2I)c(I)c1
- T/C [12]: 92 % of control
- T/C [17]: 91 % of control
- T/C [14]: 87 % of control
- T/C [18]: 96 % of control
- T/C [19]: 94 % of control

SMILES: CC(=O)O[C@]1(C(C)=O)CC[C@H]2[C@@H]3C[C@H](F)C4=CC(=O)CC[C@]4(C)[C@H]3CC[C@@]21C
- T/C [7]: 98 % of control
- T/C (dose: 100.0 mg/kg/injection, schedule: Q04DX003 (ip), vehicle: other): 93 % of control
- T/C [8]: 97 % of control
- T/C (dose: 200.0 mg/kg/injection, schedule: Q04DX003 (ip), vehicle: other): 98 % of control
- T/C [22]: 101 % of control
- T/C (dose: 400.0 mg/kg/injection, schedule: Q04DX003 (ip), vehicle: other): 100 % of control

SMILES: C=CC[N+](C)(C)C
- T/C (dose: 75.0 mg/kg/injection, schedule: Q01DX001 (ip), vehicle: saline): 101 % of control

SMILES: Cc1ccc(NC(=O)N(CCBr)N=O)cc1
- T/C (dose: 26.0 mg/kg/injection, schedule: Q01DX015 (ip), vehicle: carboxymethylcellulose (CMC)): 117 % of control
- T/C (dose: 39.0 mg/kg/injection, schedule: Q01DX015 (ip), vehicle: carboxymethylcellulose (CMC)): 101 % of control
- T/C (dose: 58.0 mg/kg/injection, schedule: Q01DX015 (ip), vehicle: carboxymethylcellulose (CMC)): 101 % of control and 121 % of control
- T/C (dose: 88.0 mg/kg/injection, schedule: Q01DX015 (ip), vehicle: carboxymethylcellulose (CMC)): 103 % of control
- T/C (dose: 100.0 mg/kg/injection, schedule: Q01DX001 (ip), vehicle: carboxymethylcellulose (CMC)): 122 % of control
- T/C (dose: 133.0 mg/kg/injection, schedule: Q01DX015 (ip), vehicle: carboxymethylcellulose (CMC)): 89 % of control
- T/C (dose: 266.0 mg/kg/injection, schedule: Q01DX001 (ip), vehicle: carboxymethylcellulose (CMC)): 168 % of control
- T/C (dose: 400.0 mg/kg/injection, schedule: Q01DX001 (ip), vehicle: carboxymethylcellulose (CMC)): 150 % of control and 153 % of control
